In the supplement of paper PMC10307832:

Assays:
Assay in all cases: relative viability (nuclei count vs DMSO), 5 days (fraction); higher = more cells survive
Ponatinib + Palbociclib = compound: Cc1ccc(C(=O)Nc2ccc(CN3CCN(C)CC3)c(C(F)(F)F)c2)cc1C#Cc1cnc2cccnn12 [Ponatinib] + CC(=O)c1c(C)c2cnc(Nc3ccc(N4CCNCC4)cn3)nc2n(C2CCCC2)c1=O [Palbociclib] (partner 0.5 µM)
Procedure, shortened: (§1)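 Lung cancer cell lines in 1536-well plates were dosed by pin tool the day after seeding, either with one drug alone or with a fixed anchor-drug dose plus five library-drug doses (not always all listed) in √10 steps. After 5 days, cells were fixed and their nuclei stained in one step (final 0.05% Triton X-100, 1% formaldehyde, 1 ug/ml Hoechst), then counted on 4× images. Relative viability is the nuclei count in treated wells divided by that in vehicle wells. Values are medians of duplicate plates.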

Ponatinib + Pemetrexed = compound: Cc1ccc(C(=O)Nc2ccc(CN3CCN(C)CC3)c(C(F)(F)F)c2)cc1C#Cc1cnc2cccnn12 [Ponatinib] + Nc1nc2[nH]cc(CCc3ccc(C(=O)N[C@@H](CCC(=O)O)C(=O)O)cc3)c2c(=O)[nH]1 [Pemetrexed] (partner 0.2 µM)
Procedure, shortened: as §1

Pazopanib + Alpelisib = compound: Cc1ccc(Nc2nccc(N(C)c3ccc4c(C)n(C)nc4c3)n2)cc1S(N)(=O)=O [Pazopanib] + Cc1nc(NC(=O)N2CCC[C@H]2C(N)=O)sc1-c1ccnc(C(C)(C)C(F)(F)F)c1 [Alpelisib] (partner 2 µM)
Procedure, shortened: as §1

Pazopanib + Decitabine = compound: Cc1ccc(Nc2nccc(N(C)c3ccc4c(C)n(C)nc4c3)n2)cc1S(N)(=O)=O [Pazopanib] + Nc1ncn([C@H]2C[C@H](O)[C@@H](CO)O2)c(=O)n1 [Decitabine] (partner 2 µM)
Procedure, shortened: as §1

| Cell Line | relative viability (Ponatinib + Palbociclib; first compound 0.002 µM) | relative viability (Ponatinib + Palbociclib; first compound 0.006325 µM) | relative viability (Ponatinib + Palbociclib; first compound 0.06325 µM) | relative viability (Ponatinib + Palbociclib; first compound 0.2 µM) | relative viability (Ponatinib + Pemetrexed; first compound 0.002 µM) | relative viability (Ponatinib + Pemetrexed; first compound 0.006325 µM) | relative viability (Ponatinib + Pemetrexed; first compound 0.06325 µM) | relative viability (Ponatinib + Pemetrexed; first compound 0.2 µM) | relative viability (Pazopanib + Alpelisib; first compound 0.01 µM) | relative viability (Pazopanib + Alpelisib; first compound 0.03162 µM) | relative viability (Pazopanib + Alpelisib; first compound 0.1 µM) | relative viability (Pazopanib + Alpelisib; first compound 0.3162 µM) | relative viability (Pazopanib + Alpelisib; first compound 1 µM) | relative viability (Pazopanib + Decitabine; first compound 0.01 µM) | relative viability (Pazopanib + Decitabine; first compound 0.03162 µM) | relative viability (Pazopanib + Decitabine; first compound 0.1 µM) | relative viability (Pazopanib + Decitabine; first compound 0.3162 µM) | relative viability (Pazopanib + Decitabine; first compound 1 µM) |
| --- | --- | --- | --- | --- | --- | --- | --- | --- | --- | --- | --- | --- | --- | --- | --- | --- | --- | --- |
| SK-LU-1 | 0.378 | 0.415 | 0.342 | 0.353 | 0.978 | 1.07 | 0.958 | 0.84 | 0.977 | 1.24 | 1.1 | 1.05 | 1.04 | 0.568 | 0.611 | 0.633 | 0.632 | 0.665 |
| LXF-289 | 0.606 | 0.613 | 0.6 | 0.611 | 0.74 | 0.846 | 0.982 | 0.891 | 1.06 | 1.04 | 1.02 | 1.03 | 1.09 | 0.395 | 0.351 | 0.39 | 0.373 | 0.381 |
| PC-3 [JPC-3] |  | 0.576 | 0.608 | 0.544 |  | 1.09 | 1.12 | 1.1 | 0.965 | 1.04 | 1.19 | 0.991 | 0.956 |  | 0.885 | 0.773 | 0.916 | 0.787 |
| NCI-H661 | 0.412 | 0.412 | 0.434 | 0.416 | 0.965 | 0.968 | 0.932 | 0.87 | 0.549 | 0.581 | 0.595 | 0.669 | 0.866 | 0.498 | 0.576 | 0.578 | 0.598 | 0.596 |
| NCI-H1666 | 0.661 | 0.659 | 0.666 | 0.639 | 0.847 | 0.829 | 0.928 | 0.837 | 1.07 | 1.06 | 1.02 | 0.954 | 1.16 | 0.703 | 0.716 | 0.636 | 0.76 | 0.765 |
| NCI-H2085 | 0.466 | 0.458 | 0.509 | 0.509 | 0.852 | 0.894 | 1.04 | 0.874 | 0.964 | 0.974 | 1.02 | 0.995 | 1.05 | 0.573 | 0.508 | 0.555 | 0.602 | 0.581 |
| NCI-H1734 | 0.34 | 0.358 | 0.347 | 0.284 | 0.394 | 0.399 | 0.44 | 0.395 | 0.632 | 0.702 | 0.743 | 0.65 | 0.769 | 0.498 | 0.492 | 0.461 | 0.532 | 0.512 |
| NCI-H2126 | 0.365 | 0.34 | 0.374 | 0.333 | 0.835 | 0.757 | 0.818 | 0.658 | 0.65 | 0.751 | 0.821 | 0.811 | 0.806 | 0.517 | 0.59 | 0.614 | 0.561 | 0.643 |
| EMC-BAC-2 | 0.469 | 0.486 | 0.476 | 0.42 | 0.436 | 0.404 | 0.468 | 0.395 | 0.702 | 0.764 | 0.808 | 0.767 | 0.747 |  | 1.01 | 0.999 | 0.974 | 1.16 |
| NCI-H1993 | 0.557 | 0.613 | 0.779 | 0.771 | 0.691 | 0.62 | 0.573 | 0.678 | 0.67 | 0.7 | 0.759 | 0.703 | 0.733 |  | 0.493 | 0.607 | 0.678 | 0.59 |
| NCI-H650 | 0.313 | 0.321 | 0.295 | 0.314 | 0.815 | 0.965 | 0.948 | 0.872 | 1.06 | 1.35 | 1.19 | 1.11 | 1.08 | 0.303 | 0.299 | 0.353 | 0.293 | 0.353 |
| NCI-H1792 | 0.605 | 0.66 | 0.655 | 0.62 | 0.698 | 0.849 | 1.14 | 0.746 |  | 0.703 | 0.748 | 0.69 | 0.69 |  | 0.549 | 0.456 | 0.621 | 0.524 |
| SW 1573 | 0.411 | 0.402 | 0.341 | 0.401 | 0.841 | 0.802 | 0.835 | 0.838 | 0.69 | 0.707 | 0.683 | 0.808 | 0.81 | 0.465 | 0.52 | 0.607 | 0.528 | 0.7 |
| NCI-H2009 | 0.161 | 0.225 | 0.238 | 0.202 | 1.05 | 0.935 | 0.959 | 0.934 | 1.08 | 1.19 | 1.26 | 1.09 | 1 | 0.334 | 0.387 | 0.396 | 0.343 | 0.382 |
| LOU-NH91 | 0.587 | 0.531 | 0.528 | 0.549 | 0.335 | 0.421 | 0.463 | 0.415 | 0.754 | 0.729 | 0.774 | 0.816 | 0.746 | 0.808 | 0.78 | 0.828 | 0.828 | 0.769 |
| NCI-H3122 | 0.194 | 0.186 | 0.213 | 0.203 | 0.208 | 0.194 | 0.214 | 0.194 | 0.733 | 0.734 | 0.783 | 0.884 | 0.736 | 0.516 | 0.407 | 0.474 | 0.449 | 0.459 |
| LCLC-97TM1 | 0.233 | 0.239 | 0.252 | 0.221 | 0.166 | 0.142 | 0.167 | 0.161 |  | 0.236 | 0.272 | 0.234 | 0.243 |  | 0.229 | 0.247 | 0.223 | 0.237 |
| NCI-H647 | 0.358 | 0.345 | 0.47 | 0.438 | 0.203 | 0.193 | 0.17 | 0.203 | 1.37 | 1.31 | 1.35 | 1.19 | 1.11 | 0.402 | 0.408 | 0.344 | 0.487 | 0.295 |
| NCI-H838 | 0.216 | 0.234 | 0.219 | 0.21 | 0.234 | 0.249 | 0.255 | 0.227 | 1.01 | 1.02 | 1.07 | 1.08 | 1.11 | 0.458 | 0.462 | 0.507 | 0.414 | 0.523 |
| H3255 | 0.325 | 0.312 | 0.297 | 0.297 | 0.527 | 0.607 | 0.614 | 0.546 | 0.612 | 0.743 | 0.833 | 0.695 | 0.741 | 0.42 | 0.618 | 0.602 | 0.718 | 0.668 |
| NCI-H1395 | 0.626 | 0.671 | 0.572 | 0.47 | 0.755 | 0.819 | 0.871 | 0.624 | 1.02 | 1.03 | 1.02 | 1.12 | 1.17 | 0.651 | 0.69 | 0.638 | 0.766 | 0.743 |
| NCI-H1437 | 0.285 | 0.318 | 0.316 | 0.332 | 0.312 | 0.294 | 0.32 | 0.27 | 0.938 | 1.02 | 0.964 | 0.938 | 1.05 | 0.541 | 0.611 | 0.626 | 0.602 | 0.567 |
| LU99A | 0.37 | 0.433 | 0.407 | 0.363 | 0.17 | 0.173 | 0.186 | 0.315 | 0.428 | 0.505 | 0.416 | 0.517 | 0.544 |  | 0.916 | 0.935 | 0.953 | 0.961 |
| HCC-827 | 0.537 | 0.483 | 0.533 | 0.497 | 0.234 | 0.304 | 0.288 | 0.247 | 0.949 | 0.943 | 1.02 | 0.944 | 1.01 | 0.333 | 0.322 | 0.293 | 0.355 | 0.348 |
| LK-2 | 0.643 | 0.744 | 0.768 | 0.757 | 0.281 | 0.305 | 0.186 | 0.247 | 0.816 | 0.996 | 1.03 | 1.05 | 0.843 | 0.228 | 0.318 | 0.324 | 0.243 | 0.277 |
| HCC-366 | 0.339 | 0.361 | 0.423 | 0.361 | 0.128 | 0.154 | 0.191 | 0.201 | 0.33 | 0.37 | 0.54 | 0.444 | 0.454 | 0.384 | 0.302 | 0.378 | 0.326 | 0.473 |
| BEN | 0.453 | 0.528 | 0.469 | 0.47 | 0.678 | 0.718 | 0.749 | 0.767 | 0.845 | 1.04 | 1.1 | 1.02 | 0.988 | 0.579 | 0.791 | 0.726 | 0.831 | 0.782 |
| NCI-H23 | 0.521 | 0.495 | 0.683 | 0.509 | 0.616 | 0.766 | 0.819 | 0.666 | 0.676 | 0.73 | 0.738 | 0.693 | 0.919 | 0.308 | 0.309 | 0.341 | 0.376 | 0.335 |
| NCI-H1793 | 0.328 | 0.327 | 0.394 | 0.413 | 0.792 | 0.914 | 0.774 | 0.671 |  | 0.687 | 0.62 | 0.914 | 0.732 |  | 0.516 | 0.488 | 0.506 | 0.627 |
| 201T | 0.367 | 0.359 | 0.351 | 0.328 | 0.319 | 0.324 | 0.346 | 0.352 | 0.959 | 1.06 | 1.02 | 0.998 | 1.05 | 0.831 | 0.886 | 0.866 | 0.879 | 0.838 |
